Structures can show the parent of a compound that is named as a salt. Marks after values point to notes of the source that are not given here.
Columns and labels:
[1] = tested on: HuH-7 cells; assay: Cell viability in HuH-7 cells (CellTiter-Blue); type: cell-based, human; conditions: for Cell Viability in HuH7 at 50 µM, 2 h Incubation / Cell Viability in HuH7 at 50 µM, 24 h Incubation: mean of triplicates ± standard deviation; for toxicity for HuH-7 cells: result in words
Procedure: In order to assess cytotoxic effects of compounds in cell culture, HuH-7 cells were incubated in presence of these compounds in a 96-well plate for 2 h or 24 h. In order to generate a calibration curve for cell viability, a serial dilution (1:2 dilution series) of cells was seeded into control wells. Measurement of cell viability is based on the assay development using CellTiter-Blue reagent (Resazurin, blue color), which is reduced to resofurin (pink color) by viable cells.
Prior to performing the assay, a 96-well assay plate (F-bottom, transparent, Greiner) containing HuH-7 cells (20,000 cells per well) in culture medium was prepared. […] CellTiter-Blue reagent (1-2 mL) was diluted with cell culture medium (10 mL) in a Falcon tube and prewarmed to 37 °C. The 96-well plate was removed from the incubator, the medium aspirated using a vacuum pump and 100 µL of diluted CellTiter-Blue reagent was added to each well.

[2] = Passive membrane permeation assay (PAMPA); type: in vitro ADME; conditions: pre-coated PAMPA plate, PBS pH 7.4, 200 µM, 25 °C; for R (mass retention) / Pe: 5 h; for Papp at 5 h, 200 µM / Pe: mean ± standard deviation; for Papp at 5 h, 200 µM: read-out: Pe
Procedure: The passive membrane permeability was evaluated with a pre-coated PAMPA plate system (BD Gentest, BD Bioscience, Germany) following the guidelines of the manufacturer and a previous literature report (cf. Kühl et al. Eur. J. Med. Chem. 2022, 240, 114585). Phosphate-buffered saline (PBS) pH 7.4 (Sigma-Aldrich, Germany) was used for all experiments. Analyte concentrations were determined on a Jasco HPLC system equipped with a UV detector and an RP-18 column (Chromolith® Performance RP-18e, 100x4.6 mm) using one of the gradients listed in Table 2. For all samples, the injection volume was 40 µl. Table 2: HPLC settings for the analysis of PAMPA samples.
Prior to performing the assay, the PAMPA plate was warmed to room temperature for 0.5 h. In the donor plate, 300 µL of the 200 µM compound solutions in PBS (4 % dimethyl sulfoxide (DMSO)) were dispensed in triplicate, and in the acceptor plate, 200 µL of PBS buffer were added to all wells. The plates were combined, and the system was incubated at 25 °C for 5 h. Upon completion of the incubation, donor and acceptor plate were separated. The wells were homogeneously mixed with a pipette, and a 100 µl sample of each donor and acceptor well was transferred to 96 well U-bottom polypropylene plates (Greiner Bio-One, Germany) for quantitative HPLC analysis.

[3] = Prodrug stability in human whole saliva; type: in vitro ADME; conditions: mean of fresh samples of three individuals, classified into three groups; for half-life at 50 µM: 37 °C
Procedure: Freshly collected saliva and 5 mM stock solutions of the analytes in DMSO were prewarmed to 37 °C for 10 min. Then, 700 µl prewarmed saliva was added to 7 µl of the prodrug stock, and the mixture was incubated at 37 °C. Samples (100 µL) were taken at selected time points (0, 10, 20, 40, 60 min; 2 h or 24 h) and immediately quenched with acetonitrile (200 µl). Blank samples were prepared by mixing saliva (100 µl) with acetonitrile (200 µl). Centrifugation (3,000 rpm, 5 min) of the quenched samples afforded clear supernatants which were transferred to 96 well U-bottom polypropylene plates (Greiner Bio-One, Germany). Analyte quantifications were performed on a Jasco HPLC system equipped with a UV detector and an RP-18 column (Chromolith® Performance RP-18e, 100x4.6 mm) using the gradients listed in Table 4. Samples that gave rise to asymmetric peaks inadequate for quantification were diluted (1:1) with H2O (+0.1 % TFA). The injection volume was 40 µl and the flow was set to 1.0 mL/min. UV detection was performed at 286 nm. […] Table 4: HPLC settings for quantitative analysis of saliva samples.

[4] = Drug release kinetics (prodrug cleavage) in human blood plasma; type: in vitro ADME; conditions: for half-life: 10 % human plasma in PBS, 50 µM; for half-life / half-life at 50 µM: 37 °C; for half-life at 50 µM: 100 % pooled human blood plasma; for t1/2 at 37 °C and [prodrug]0 = 50 µM, 100 % Human Plasma / half-life at 50 µM: 100 % human plasma
Procedure: Pooled human blood plasma (Biowest, France) and sterile Dulbecco's phosphate buffered saline (PBS) pH 7.3 (Sigma-Aldrich, Germany) were used for all experiments. The blood plasma was aliquoted upon receipt and stored at -20 °C. 10 % solutions were prepared by thawing a plasma aliquot at 2-8 °C, distributing it into plastic vials and diluting with the appropriate volume of sterile PBS. The 10 % and 100 % plasma aliquots were stored at -20 °C and thawed at 2-8 °C directly before the assay was performed. In a thermoblock, a plasma aliquot and 10 µl of a 5 mM prodrug solution in DMSO were prewarmed to 37 °C for 10 min in separate plastic vials. Then, 1000 µl of the prewarmed plasma sample was added to the prodrug solution, and 9×100 µl samples were withdrawn at appropriate time intervals. The enzymatic reaction was quenched by immediate mixing of the samples (100 µl) with acetonitrile (200 µl). Blank samples were prepared by mixing 10 % or 100 % plasma (100 µl) with acetonitrile (200 µl), respectively. Samples of the initial reaction mixture were prepared by adding the 5 mM prodrug solution (1 µl) to a blank sample.
Centrifugation (13,000 rpm, 3 min) of the quenched samples afforded clear supernatants which were transferred to 96 well U-bottom polypropylene plates (Greiner Bio-One, Germany). Analyte quantifications were performed on a Jasco HPLC system equipped with a UV detector and an RP-18 column (Chromolith® Performance RP-18e, 100x4.6 mm) using one of the gradients listed in Table 3. Prodrug degradation was monitored using undiluted supernatant and a 10 min chromatographic method. […] For all samples, the injection volume was 40 µL and the flow was set to 1.0 mL/min. […] Table 3: HPLC settings for quantitative analysis of plasma samples.

| Compound | Cell Viability in HuH7 at 50 µM, 2 h Incubation [1] [%] | Cell Viability in HuH7 at 50 µM, 24 h Incubation [1] [%] | R (mass retention) [2] | Papp at 5 h, 200 µM [2] [×10⁻⁶ cm/s] | other results |
| --- | --- | --- | --- | --- | --- |
| CCN(C)CCc1c[nH]c2cccc(O)c12 [4-OH-MET fumarate 17, 4-Hydroxy-N-ethyl-N-methyltryptammonium fumarate, reference compound] | 91.0 ± 1.7 | 82.9 ± 1.3 | 29% | 11 ± 1 |  |
| CC(=O)Oc1ccccc1C(=O)O [Acetylsalicylic acid, reference compound] | 92.9 ± 3.3 | 83.8 ± 3.8 |  |  | half-life at 50 µM ([3]; both sexes): > 60 min |
| Cn1c(=O)c2c(ncn2C)n(C)c1=O [Caffeine, reference compound] |  |  | 1% | 12.8 ± 0.9 |  |
| CCN(C)CCc1c[nH]c2cccc(OC(C)=O)c12 [Compound 8a, 4-Acetoxy-N-ethyl-N-methyltryptammonium fumarate, reference compound] | 88.7 ± 3.0 | 85.4 ± 3.6 | 4% | 5.6 ± 0.8 | half-life at 50 µM [3]: 15 to 60 min; half-life [4]: 0.69 ± 0.14 min |
| CCCCCC(=O)Oc1cccc2[nH]cc(CCN(C)CC)c12 [Compound 8c, 4-Hexanoyloxy-N-ethyl-N-methyltryptammonium fumarate, reference compound] | 30.2 ± 1.0 | 74.3 ± 8.0 | 7% | 11.8 ± 1 | half-life at 50 µM [3]: < 15 min; half-life [4]: 0.66 ± 0.13 min |
| CCN(C)CCc1c[nH]c2cccc(OC(=O)C(C)C)c12 [Compound 8d, 4-iso-Butyryloxy-N-ethyl-N-methyltryptammonium fumarate] | 91.4 ± 3.7 | 82.1 ± 2.3 | 4% | 9.5 ± 0.7 | half-life at 50 µM [3]: 15 to 60 min; half-life [4]: 0.44 ± 0.03 min; Pe [2]: at least 8 10^-6 cm/s |
| CCN(C)CCc1c[nH]c2cccc(OC(=O)C3CC3)c12.CCN(C)CCc1c[nH]c2cccc(OC(=O)C3CC3)c12.O=C(O)/C=C/C(=O)O [Compound 8e, 4-(Cyclopropanecarbonyloxy)-N-ethyl-N-methyltryptammonium fumarate] | 101.2 ± 3.1 | 81.7 ± 2.0 |  |  | t1/2 at 37 °C and [prodrug]0 = 50 µM, Human Saliva [3]: > 60 min; t1/2 at 37 °C and [prodrug]0 = 50 µM, 100 % Human Plasma [4]: 0.84 ± 0.11^c min |
| CCN(C)CCc1c[nH]c2cccc(OC(=O)CC(C)C)c12 [Compound 8g, 4-(3-Methylbutanoyl)oxy-N-ethyl-N-methyltryptammonium fumarate] | 81.7 ± 8.6 | 79.8 ± 4.6 | 2% | 10.6 ± 0.8 | half-life [4]: > 8 min |
| CCN(C)CCc1c[nH]c2cccc(OC(=O)CC(C)(C)C)c12 [Compound 8h, 4-(tert-Butylacetyl)oxy-N-ethyl-N-methyltryptammonium fumarate] | 28.7 ± 1.1 | 42.3 ± 25.9 | 1% | 11.2 ± 0.8 | half-life [4]: > 8 min |
| CCN(C)CCc1c[nH]c2cccc(OC(=O)c3ccco3)c12.CCN(C)CCc1c[nH]c2cccc(OC(=O)c3ccco3)c12.O=C(O)/C=C/C(=O)O [Compound 8j, 4-(2-Furoyl)oxy-N-ethyl-N-methyltryptammonium fumarate] | 89.6 ± 3.4 | 78.0 ± 2.0 |  |  | t1/2 at 37 °C and [prodrug]0 = 50 µM, Human Saliva [3]: 15 to 60 min; t1/2 at 37 °C and [prodrug]0 = 50 µM, 100 % Human Plasma [4]: 0.14 ± 0.01 min |
| CN(C)CCc1cn(C(=O)OCc2ccccc2)c2cccc(O)c12 [Compound 10, 1-Benzyloxycarbonyl-4-hydroxy-N,N-dimethyltryptamine] | 0.1 ± 0.2 | -1.3 ± 0.1 |  |  | half-life at 50 µM [4]: > 3.96 days; toxicity for HuH-7 cells [1]: extremely toxic |
| CCN(C)CCc1cn(C(=O)OCc2ccccc2)c2cccc(O)c12 [Compound 11, 1-Benzyloxycarbonyl-4-hydroxy-N-ethyl-N-methyltryptamine] | 0.1 ± 0.2 | -2.1 ± 0.1 |  |  | half-life at 50 µM [4]: > 3.96 days; toxicity for HuH-7 cells [1]: extremely toxic |
| CCCC(=O)OCOc1cccc2[nH]cc(CCN(C)C)c12 [Compound 15b, 4-n-Butanoyloxymethyloxy-N,N-dimethyltryptammonium fumarate] | 90.0 ± 5.2 | 79.3 ± 3.5 | 7^b % |  | half-life at 50 µM [3]: < 15 min; Pe [2]: 8.1 ± 0.8^b 10^-6 cm/s |
| CCCC(=O)OCOc1cccc2[nH]cc(CCN(C)CC)c12 [Compound 15d, 4-n-Butanoyloxymethyloxy-N-ethyl-N-methyltryptammonium fumarate] | 85.4 ± 2.7 | 80.6 ± 3.3 | 6% |  | half-life at 50 µM [3]: < 15 min; Pe [2]: 8.0 ± 0.3 10^-6 cm/s |
| NS(=O)(=O)c1cc(C(=O)O)c(NCc2ccco2)cc1Cl [Furosemide, reference compound] | 121.9 ± 13.8 | 90.7 ± 1.1 |  |  | Pe [2]: -0.4 ± 0.3^c 10^-6 cm/s |
| CN(C)CCCN1c2ccccc2CCc2ccccc21 [Imipramine HCl, reference compound] | 91.1 ± 3.7 | 24.4 ± 5.3 |  |  |  |
| O=C1NC(=O)C(c2ccccc2)(c2ccccc2)N1 [Phenytoin, reference compound] | 122.9 ± 1.7 | 84.2 ± 2.7 | 57% | 7.5 ± 1 |  |
| CN(C)CCc1c[nH]c2cccc(O)c12 [Psilocin 1, 4-Hydroxy-N,N-dimethyltryptamine, reference compound] | 93.7 ± 6.3 | 72.5 ± 8.3 |  |  |  |

Reference: EP4592276A1, “NOVEL ACY[…] OF PSILOCIN AND RELATED 4-HYDROXYT[…] BY AN EFFICIENT […] APPROACH” (Universität Heidelberg, priority 2024, dated 2025)
